Values of other authors in patent publication US10561697B2, “Compositions based on saffron for the prevention and/or treatment of degenerative eye disorders” (Hortus Novus SRL, priority 2014, dated 2020).

Columns and labels:
rats exposed to light = details: diet added with 0.2% of curcumin
[1] = tested on: rats affected by the P23H mutation in the rhodopsin gene; details: 100 mg/kg

COc1cc(/C=C/C(=O)CC(=O)/C=C/c2ccc(O)c(OC)c2)ccc1O [curcumin]
onset of retinal oxidative and inflammatory stress (rats exposed to light): reduction in the onset of retinal oxidative and inflammatory stress
formation of rhodopsin aggregates [1]: active in inhibiting the formation of rhodopsin aggregates
morphology of the retina, photoreceptors preservation ([1]; transgenic rats): improvement in the morphology of the retina
